# Source: ChEMBL document CHEMBL1201862, “PubChem BioAssay data set” (2004)
# Active and inactive are the calls of the source.
# What was measured:
# Beta-galactosidase = Beta-galactosidase (Escherichia coli, UniProt Q8VNN2); test: Dose response counterscreen for EBI2 assay utilizing the enzyme, b-galactosidase.; type: functional
# cells = type: functional, cell-based
# [1] = target: T1, Nuclear receptor subfamily 0 group B member 1 (Homo sapiens, UniProt P51843); type: functional, cell-based;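 also: HEK293T cells transfected with SF-1 and DAX-1 plus StAR promoter luciferase reporter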
# T1 sequence (P51843 whole entry): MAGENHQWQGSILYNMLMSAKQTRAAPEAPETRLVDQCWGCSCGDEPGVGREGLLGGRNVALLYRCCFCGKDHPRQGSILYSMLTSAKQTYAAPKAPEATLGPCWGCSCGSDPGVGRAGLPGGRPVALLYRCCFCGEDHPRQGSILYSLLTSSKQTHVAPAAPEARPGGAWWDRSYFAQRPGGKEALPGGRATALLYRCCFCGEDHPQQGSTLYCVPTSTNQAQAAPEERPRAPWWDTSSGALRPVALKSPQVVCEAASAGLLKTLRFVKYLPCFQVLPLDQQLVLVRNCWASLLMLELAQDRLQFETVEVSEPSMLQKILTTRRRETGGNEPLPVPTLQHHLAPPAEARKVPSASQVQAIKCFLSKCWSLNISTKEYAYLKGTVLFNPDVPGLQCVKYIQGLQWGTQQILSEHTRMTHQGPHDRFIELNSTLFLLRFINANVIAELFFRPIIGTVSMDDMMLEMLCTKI
# [2] = microbe, parasite or virus in culture; type: functional; settings: Mycobacterium tuberculosis
# [3] = target: Disintegrin and metalloproteinase domain-containing protein 17 (Homo sapiens, UniProt P78536); test: exosite inhibitors of ADAM17, dose response, biochemical (AID 743260)
# [4] = ADAM10 protease inhibitors, dose response, selectivity assay for ADAM17 exosite inhibitor project, biochemical, FRET peptide substrate, recombinant human ADAM10 (AID 743259);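 also: ADAM10 enzyme cleaving a FRET peptide substrate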
# [5] = target: Long-chain-fatty-acid--AMP ligase FadD28 (Mycobacterium tuberculosis, UniProt P9WQ59); test: Fluorescence polarization aasay to screen for inhibitors that compete for the binding of FadD28 to a bisubstrate Measured in Biochemical System Using Plate Reader - 2147-01_Inhibitor_Dose_CherryPick_Activity.; type: functional, Mycobacterium tuberculosis H37Rv
# Fatty acid synthase [6] = target: T2, Fatty acid synthase (Homo sapiens, UniProt P49327); test: FAS thioesterase domain inhibitors, dose response, biochemical, endpoint fluorescence intensity, uHTS hits (AID 624327); type: functional;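 also: fluorescence from hydrolysis of an O-methyl fluorescein acyl ester substrate by the enzyme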
# Fatty acid synthase [7] = target: T2, Fatty acid synthase; test: FAS thioesterase domain inhibitors, dose response, biochemical, kinetic fluorescence intensity (AID 624326); type: functional;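 also: rate of fluorescence rise from hydrolysis of a fluorogenic O-methyl fluorescein ester substrate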
# fMet-Leu-Phe receptor = fMet-Leu-Phe receptor (Homo sapiens, UniProt P21462); test: FPR ligands, dose response (AID 519); type: functional
# [8] = target: Photoreceptor-specific nuclear receptor (Homo sapiens, UniProt Q9Y5X4); type: functional, cell-based;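 also: CHO-S cells with Gal4-NCOR and VP16-NR2E3 two-hybrid luciferase reporter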
# [9] = target: T3, Methionyl-tRNA synthetase, putative (Trypanosoma brucei brucei, UniProt Q38C91); type: functional, Trypanosoma brucei brucei strain 927/4 GUTat10.1
# T3 sequence (Q38C91 whole entry): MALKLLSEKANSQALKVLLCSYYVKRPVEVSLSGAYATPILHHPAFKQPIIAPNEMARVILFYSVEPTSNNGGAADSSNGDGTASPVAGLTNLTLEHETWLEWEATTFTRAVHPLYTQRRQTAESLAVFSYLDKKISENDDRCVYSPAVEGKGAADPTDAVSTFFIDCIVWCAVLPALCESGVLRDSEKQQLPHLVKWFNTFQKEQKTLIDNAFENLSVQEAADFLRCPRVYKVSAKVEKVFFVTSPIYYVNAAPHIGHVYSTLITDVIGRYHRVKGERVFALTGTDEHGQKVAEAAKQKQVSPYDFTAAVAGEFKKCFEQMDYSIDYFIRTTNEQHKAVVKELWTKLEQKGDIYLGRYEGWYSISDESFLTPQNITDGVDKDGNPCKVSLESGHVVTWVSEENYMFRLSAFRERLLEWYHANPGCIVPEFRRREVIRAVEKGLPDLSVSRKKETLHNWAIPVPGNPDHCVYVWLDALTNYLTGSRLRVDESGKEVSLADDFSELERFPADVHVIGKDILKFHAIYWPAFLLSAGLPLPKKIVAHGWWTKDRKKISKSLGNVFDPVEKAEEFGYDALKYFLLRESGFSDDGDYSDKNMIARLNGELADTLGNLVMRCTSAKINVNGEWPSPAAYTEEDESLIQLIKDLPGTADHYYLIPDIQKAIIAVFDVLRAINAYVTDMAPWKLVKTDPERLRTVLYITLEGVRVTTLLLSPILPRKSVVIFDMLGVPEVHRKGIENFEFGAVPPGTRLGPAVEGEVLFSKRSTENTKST
# [10] = Counterscreen for inhibitors of Trypanosoma brucei methionyl tRNA synthetase (MetRS): Luminescence-based cell-based high throughput dose response assay to identify compounds that are cytotoxic to Jurkat human T lymphocyte cells.; type: functional
# [11] = target: T3, Methionyl-tRNA synthetase, putative; type: functional, Trypanosoma brucei brucei strain 927/4 GUTat10.1; remark: listed apart in the source
# [12] = non-specific cell cytotoxicity, dose response, cytotoxicity control for PAX8 inhibitor project, plate reader, dry powder samples (AID 743021); type: functional, cell-based
# [13] = target: Glucose-6-phosphate 1-dehydrogenase (Homo sapiens, UniProt P11413); test: human G6PD enzyme inhibitors, dose response, selectivity assay for P. falciparum G6PD inhibitor project, biochemical, fluorescence (AID 504792); type: functional
# [14] = target: T4, Endoribonuclease toxin MazF (Escherichia coli K-12, UniProt P0AE70); test: MazF toxin RNase activators, dose response, biochemical, fluorescence, single-stranded RNA substrate, uHTS hits (AID 588481); type: functional
# T4 sequence (P0AE70 whole entry): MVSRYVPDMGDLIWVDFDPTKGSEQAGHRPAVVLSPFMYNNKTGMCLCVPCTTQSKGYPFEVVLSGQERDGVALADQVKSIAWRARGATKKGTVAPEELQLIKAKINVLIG
# [15] = target: T4, Endoribonuclease toxin MazF; test: fluorescent RNA oligo signal without MazF, dose response, counter-screen for MazEF activator project, biochemical, fluorescence, single-stranded RNase substrate (AID 588502); type: functional
# Caspase-6 = target: T5, Caspase-6 (Homo sapiens, UniProt P55212); test: human caspase-6 inhibitors, dose response, biochemical, VEID-R110 fluorescence, cherry-pick (AID 720632)
# T5 sequence (P55212 whole entry): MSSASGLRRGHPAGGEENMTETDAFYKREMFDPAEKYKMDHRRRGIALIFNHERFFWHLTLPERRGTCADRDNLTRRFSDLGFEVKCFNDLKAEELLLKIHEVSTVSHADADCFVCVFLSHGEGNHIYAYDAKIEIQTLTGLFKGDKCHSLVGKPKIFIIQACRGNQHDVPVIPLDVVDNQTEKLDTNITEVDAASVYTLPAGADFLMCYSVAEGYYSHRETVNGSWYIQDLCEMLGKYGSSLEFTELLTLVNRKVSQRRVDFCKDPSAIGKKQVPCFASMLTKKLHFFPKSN
# Caspase-7 = target: T6, Caspase-7 (Homo sapiens, UniProt P55210); test: human caspase-7 inhibitors, dose response, selectivity assay for caspase-6 inhibitor project, biochemical, DEVD-R110 fluorescence, cherry-pick (AID 743295)
# T6 sequence (P55210 whole entry): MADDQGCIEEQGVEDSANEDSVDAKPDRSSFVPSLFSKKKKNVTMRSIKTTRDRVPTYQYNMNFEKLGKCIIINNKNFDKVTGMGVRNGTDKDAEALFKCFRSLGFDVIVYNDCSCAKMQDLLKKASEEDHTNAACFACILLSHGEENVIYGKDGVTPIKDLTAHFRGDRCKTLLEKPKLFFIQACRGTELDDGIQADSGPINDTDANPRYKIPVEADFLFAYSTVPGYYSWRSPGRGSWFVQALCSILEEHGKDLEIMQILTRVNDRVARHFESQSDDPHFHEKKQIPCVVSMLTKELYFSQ
# Sequence of Disintegrin and metalloproteinase domain-containing protein 17 (P78536 whole entry, the tested form may be a part): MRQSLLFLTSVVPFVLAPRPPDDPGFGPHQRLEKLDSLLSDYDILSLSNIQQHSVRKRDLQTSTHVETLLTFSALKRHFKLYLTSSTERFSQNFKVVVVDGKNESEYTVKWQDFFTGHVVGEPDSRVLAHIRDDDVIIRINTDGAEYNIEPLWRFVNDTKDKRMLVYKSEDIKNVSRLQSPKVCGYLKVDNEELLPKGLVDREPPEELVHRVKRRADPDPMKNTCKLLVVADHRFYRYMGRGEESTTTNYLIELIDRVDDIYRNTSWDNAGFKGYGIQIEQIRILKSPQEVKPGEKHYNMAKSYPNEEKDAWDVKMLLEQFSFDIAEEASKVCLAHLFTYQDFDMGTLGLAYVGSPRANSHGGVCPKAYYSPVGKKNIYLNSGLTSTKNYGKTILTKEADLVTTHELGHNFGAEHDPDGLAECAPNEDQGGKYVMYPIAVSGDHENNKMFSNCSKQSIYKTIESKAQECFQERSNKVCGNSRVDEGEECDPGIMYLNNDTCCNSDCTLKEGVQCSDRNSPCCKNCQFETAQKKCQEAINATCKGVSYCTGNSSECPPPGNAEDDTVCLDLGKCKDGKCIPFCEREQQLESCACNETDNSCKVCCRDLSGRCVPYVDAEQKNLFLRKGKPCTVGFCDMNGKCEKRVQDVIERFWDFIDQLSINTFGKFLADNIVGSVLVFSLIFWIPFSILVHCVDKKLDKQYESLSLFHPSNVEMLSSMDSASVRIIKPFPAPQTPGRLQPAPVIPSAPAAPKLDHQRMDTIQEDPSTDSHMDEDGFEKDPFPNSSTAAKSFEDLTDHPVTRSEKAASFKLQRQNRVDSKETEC
# Sequence of Beta-galactosidase (Q8VNN2 whole entry): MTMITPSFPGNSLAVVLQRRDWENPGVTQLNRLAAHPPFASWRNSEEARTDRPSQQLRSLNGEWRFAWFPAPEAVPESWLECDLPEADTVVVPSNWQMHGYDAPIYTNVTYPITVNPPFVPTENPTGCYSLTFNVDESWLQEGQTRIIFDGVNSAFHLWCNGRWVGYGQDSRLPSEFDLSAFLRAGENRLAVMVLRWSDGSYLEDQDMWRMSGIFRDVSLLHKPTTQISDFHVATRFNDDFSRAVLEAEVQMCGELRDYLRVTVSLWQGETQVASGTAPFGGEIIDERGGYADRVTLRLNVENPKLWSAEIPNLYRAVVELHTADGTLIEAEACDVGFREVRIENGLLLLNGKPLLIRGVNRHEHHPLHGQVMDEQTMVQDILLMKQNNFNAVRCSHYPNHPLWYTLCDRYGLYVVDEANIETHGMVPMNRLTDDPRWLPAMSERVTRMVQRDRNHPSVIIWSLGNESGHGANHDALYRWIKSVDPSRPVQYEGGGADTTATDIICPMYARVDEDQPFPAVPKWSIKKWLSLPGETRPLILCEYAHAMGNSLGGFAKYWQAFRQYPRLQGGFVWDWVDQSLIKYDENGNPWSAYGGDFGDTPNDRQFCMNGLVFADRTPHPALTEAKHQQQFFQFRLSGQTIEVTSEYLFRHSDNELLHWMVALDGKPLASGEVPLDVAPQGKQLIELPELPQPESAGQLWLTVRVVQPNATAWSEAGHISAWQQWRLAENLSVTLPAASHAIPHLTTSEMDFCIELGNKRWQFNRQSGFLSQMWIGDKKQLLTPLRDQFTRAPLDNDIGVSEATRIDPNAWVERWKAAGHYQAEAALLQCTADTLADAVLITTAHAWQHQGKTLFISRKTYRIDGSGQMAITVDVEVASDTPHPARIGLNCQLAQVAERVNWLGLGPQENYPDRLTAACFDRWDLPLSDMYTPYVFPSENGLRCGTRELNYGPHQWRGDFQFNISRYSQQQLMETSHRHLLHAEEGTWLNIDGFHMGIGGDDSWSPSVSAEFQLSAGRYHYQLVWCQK
# T2 sequence (P49327 whole entry, the tested form may be a part): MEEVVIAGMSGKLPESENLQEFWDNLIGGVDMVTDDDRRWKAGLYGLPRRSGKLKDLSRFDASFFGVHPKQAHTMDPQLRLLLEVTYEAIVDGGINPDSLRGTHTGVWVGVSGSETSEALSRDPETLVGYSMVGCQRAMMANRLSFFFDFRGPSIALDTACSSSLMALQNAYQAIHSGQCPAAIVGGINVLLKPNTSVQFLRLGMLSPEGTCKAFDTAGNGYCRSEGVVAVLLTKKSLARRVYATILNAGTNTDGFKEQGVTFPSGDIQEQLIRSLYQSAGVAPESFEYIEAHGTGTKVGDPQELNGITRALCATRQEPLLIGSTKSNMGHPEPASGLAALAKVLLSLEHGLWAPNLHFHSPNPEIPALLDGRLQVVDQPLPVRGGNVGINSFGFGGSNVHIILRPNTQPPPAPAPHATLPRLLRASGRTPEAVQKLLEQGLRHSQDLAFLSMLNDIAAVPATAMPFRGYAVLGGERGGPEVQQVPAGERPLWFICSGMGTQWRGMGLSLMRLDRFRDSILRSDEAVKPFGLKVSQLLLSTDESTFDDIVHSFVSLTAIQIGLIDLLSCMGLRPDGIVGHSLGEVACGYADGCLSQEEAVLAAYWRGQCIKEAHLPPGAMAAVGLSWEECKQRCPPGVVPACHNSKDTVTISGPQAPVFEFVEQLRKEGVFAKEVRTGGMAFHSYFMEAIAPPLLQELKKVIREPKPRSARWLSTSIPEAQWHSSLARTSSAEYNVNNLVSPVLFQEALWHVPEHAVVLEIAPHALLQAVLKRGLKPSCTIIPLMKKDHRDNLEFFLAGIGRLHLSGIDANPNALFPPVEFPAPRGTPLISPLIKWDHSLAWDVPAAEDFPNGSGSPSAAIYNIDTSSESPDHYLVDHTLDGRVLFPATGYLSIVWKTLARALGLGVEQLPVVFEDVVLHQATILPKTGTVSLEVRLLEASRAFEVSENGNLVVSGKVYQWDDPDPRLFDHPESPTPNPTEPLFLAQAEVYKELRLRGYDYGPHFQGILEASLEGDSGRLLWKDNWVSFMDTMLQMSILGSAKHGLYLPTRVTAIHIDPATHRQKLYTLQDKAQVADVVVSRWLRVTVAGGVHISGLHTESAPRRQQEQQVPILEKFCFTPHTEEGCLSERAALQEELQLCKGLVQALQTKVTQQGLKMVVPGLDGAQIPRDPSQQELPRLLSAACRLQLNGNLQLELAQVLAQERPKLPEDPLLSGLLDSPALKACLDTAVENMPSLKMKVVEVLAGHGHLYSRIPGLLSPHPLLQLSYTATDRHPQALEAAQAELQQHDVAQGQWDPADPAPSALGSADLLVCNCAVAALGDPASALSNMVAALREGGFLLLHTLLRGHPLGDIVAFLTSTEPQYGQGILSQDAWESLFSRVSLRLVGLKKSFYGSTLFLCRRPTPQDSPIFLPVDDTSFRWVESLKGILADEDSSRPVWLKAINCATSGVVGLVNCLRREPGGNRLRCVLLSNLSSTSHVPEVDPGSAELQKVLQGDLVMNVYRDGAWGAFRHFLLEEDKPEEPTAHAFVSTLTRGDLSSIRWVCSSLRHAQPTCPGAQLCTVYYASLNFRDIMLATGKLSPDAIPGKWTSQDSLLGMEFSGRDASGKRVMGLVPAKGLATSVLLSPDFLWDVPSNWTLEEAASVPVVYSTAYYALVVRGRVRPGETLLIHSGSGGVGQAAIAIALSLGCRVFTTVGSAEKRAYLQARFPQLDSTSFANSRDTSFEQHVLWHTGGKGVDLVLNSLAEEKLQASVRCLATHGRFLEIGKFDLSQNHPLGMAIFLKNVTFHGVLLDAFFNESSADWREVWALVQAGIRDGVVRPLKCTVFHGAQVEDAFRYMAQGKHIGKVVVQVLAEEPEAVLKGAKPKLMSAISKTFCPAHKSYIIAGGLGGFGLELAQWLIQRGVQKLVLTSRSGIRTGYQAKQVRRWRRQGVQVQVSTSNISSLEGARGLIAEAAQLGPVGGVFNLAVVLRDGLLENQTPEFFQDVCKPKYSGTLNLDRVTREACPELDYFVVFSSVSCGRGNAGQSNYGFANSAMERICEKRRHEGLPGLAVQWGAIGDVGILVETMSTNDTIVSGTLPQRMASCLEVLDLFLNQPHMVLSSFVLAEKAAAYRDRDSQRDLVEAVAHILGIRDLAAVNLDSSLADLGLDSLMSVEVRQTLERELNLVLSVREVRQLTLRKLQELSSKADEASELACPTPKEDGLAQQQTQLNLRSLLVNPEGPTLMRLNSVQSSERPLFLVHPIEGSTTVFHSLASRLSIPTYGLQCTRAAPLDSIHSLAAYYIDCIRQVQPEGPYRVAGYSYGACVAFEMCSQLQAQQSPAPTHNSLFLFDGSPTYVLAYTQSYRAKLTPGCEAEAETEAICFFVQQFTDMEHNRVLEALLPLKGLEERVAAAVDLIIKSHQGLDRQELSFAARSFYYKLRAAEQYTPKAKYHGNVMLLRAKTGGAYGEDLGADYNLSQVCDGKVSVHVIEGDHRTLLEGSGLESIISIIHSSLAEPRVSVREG
# Sequence of Long-chain-fatty-acid--AMP ligase FadD28 (P9WQ59 whole entry, the tested form may be a part): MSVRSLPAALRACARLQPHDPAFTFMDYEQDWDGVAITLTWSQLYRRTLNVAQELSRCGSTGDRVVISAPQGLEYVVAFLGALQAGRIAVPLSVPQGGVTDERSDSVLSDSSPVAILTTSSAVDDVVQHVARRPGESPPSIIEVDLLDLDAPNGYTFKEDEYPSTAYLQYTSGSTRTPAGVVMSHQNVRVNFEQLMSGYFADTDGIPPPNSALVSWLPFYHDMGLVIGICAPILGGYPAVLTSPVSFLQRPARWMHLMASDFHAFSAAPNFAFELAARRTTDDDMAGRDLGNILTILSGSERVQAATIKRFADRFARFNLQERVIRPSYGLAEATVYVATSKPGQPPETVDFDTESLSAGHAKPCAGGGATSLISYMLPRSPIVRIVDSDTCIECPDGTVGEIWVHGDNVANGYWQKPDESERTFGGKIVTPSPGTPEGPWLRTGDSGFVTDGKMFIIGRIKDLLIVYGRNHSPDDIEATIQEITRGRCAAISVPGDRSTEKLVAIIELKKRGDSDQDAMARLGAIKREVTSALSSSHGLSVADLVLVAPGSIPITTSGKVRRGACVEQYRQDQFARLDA
smiles,measurement,setting,value
Cc1ccc(NC2=CC(=O)CC(c3ccc(Cl)cc3)C2)cc1 (stereo not drawn),IC50,Beta-galactosidase,> 80 µM (inactive)
CC1=C(C(=O)Nc2ccc(CC(=O)NCc3ccc(OC(C)C)cc3)cc2)SCCO1,IC50,cells,> 67.5 µM (inactive)
same,IC50,[1],> 67.5 µM (inactive)
CCOc1ccc(-c2[nH]ncc2-c2ccc(Cl)cc2)c(O)c1,CC50,[2],> 40 µM (active)
same,IC50,[3],> 69.5 µM (inactive)
same,IC50,[4],23.7 µM (inactive)
O=C(CN1C(=O)S/C(=C\c2ccccc2)C1=O)Nc1cc([N+](=O)[O-])ccc1O,AC50,[5],61.2 µM (active)
same,IC50,Fatty acid synthase [6],2.94 µM (active)
same,IC50,Fatty acid synthase [7],1.83 µM (active)
CCc1cc(C(=O)OC)c(NC(=O)C2CC(=O)NN2Cc2ccccc2)s1 (stereo not drawn),IC50,[3],> 69.5 µM (inactive)
same,IC50,[4],> 69.5 µM (inactive)
CCOc1ccc(C(=O)C2=C(O)C(=O)N(CC3CCCO3)C2c2ccc(C)o2)cc1 (stereo not drawn),Ki,fMet-Leu-Phe receptor,21.1 µM (inactive)
COc1cccc(NC(=O)CSc2nc3cc(Br)c[nH]c-3n2)c1,IC50,[8],0.377 µM (active)
same,IC50,[9],4.03 µM (active)
same,IC50,[10],83.3 µM (inactive)
same,IC50,[11],2 µM (active)
COc1ccccc1N1CCN(C(=O)c2cc(-c3ccc(F)cc3)[nH]c2C)CC1,IC50,Beta-galactosidase,> 80 µM (inactive)
Cn1c(SCC(=O)c2ccccc2)nnc1-c1ccccn1,AC50,[12],51 µM (active)
Cc1ccc([S+]([O-])c2ccc([N+](=O)[O-])c3nonc23)cc1 (stereo not drawn),IC50,[13],42.3 µM (inactive)
same,EC50,[14],> 99 µM (inactive)
same,EC50,[15],> 99 µM (inactive)
same,AC50,Caspase-6,2.56 µM (active)
same,AC50,Caspase-7,> 70 µM (inactive)
